ChEMBL document CHEMBL5365548, “Discovery of Pyrrolo[2,3-c]pyridines as Potent and Reversible LSD1 Inhibitors” (ACS Med Chem Lett, 2023)
Values belong to the molecule of their own block, whether it stands above or below them.

Key:
[1] = biological target: Lysine-specific histone demethylase 1A (Homo sapiens, UniProt O60341); test: Inhibition of human recombinant LSD1 expressed in Escherichia coli using H3K4me2 peptide as substrate incubated for 60 mins by AlphaLISA assay
MOLM-13 = test: Antiproliferative activity against human MOLM-13 cells assessed as cell growth inhibition incubated for 7 days by WST-8 assay; format: functional, cell-based; settings: MOLM-13, 168 h
MV4-11 = test: Antiproliferative activity against human MV4-11 cells assessed as cell growth inhibition incubated for 10 days by WST-8 assay; format: functional, cell-based; settings: MV4-11, 240 h
NCI-H1417 = test: Antiproliferative activity against human NCI-H1417 cells assessed as cell growth inhibition incubated for 10 days by WST-8 assay; format: functional, cell-based; settings: NCI-H1417, 240 h
[2] = Microsomal stability in mouse liver microsome assessed as half life measured upto 60 mins by LC-MS/MS analysis; format: ADME; settings: liver microsomes
[3] = Microsomal stability in rat liver microsome assessed as half life measured upto 60 mins by LC-MS/MS analysis; format: ADME; settings: liver microsomes
[4] = Microsomal stability in dog liver microsome assessed as half life measured upto 60 mins by LC-MS/MS analysis; format: ADME, Canis lupus familiaris; settings: liver microsomes
[5] = Microsomal stability in human liver microsome assessed as half life measured upto 60 mins by LC-MS/MS analysis; format: ADME; settings: liver microsomes

SMILES: Cc1cc(-c2c(-c3ccc4c(cnn4C)c3)ncc3c2ccn3CC2CCNCC2)ccc1C#N
IC50 [1]: 156 nM

SMILES: Cc1ccc(-c2ncc3c(ccn3C[C@@H]3CCNC3)c2-c2ccc(C#N)cc2)cc1
IC50 [1]: 80 nM

SMILES: Cn1cc(-c2ncc3c(ccn3CC3CCNCC3)c2-c2ccc(C#N)cc2)cn1
IC50 [1]: > 1000 nM

SMILES: C=C(C)c1ccc(-c2ncc3c(ccn3CC3CCNCC3)c2-c2ccc(C#N)cc2)cc1
IC50 [1]: 58.5 nM

SMILES: CC(C)c1ccc(-c2ncc3c(ccn3CC3CCNCC3)c2-c2ccc(C#N)cc2)cc1
IC50 [1]: 46.1 nM

SMILES: CC(C)(O)c1ccc(-c2ncc3c(ccn3CC3CCNCC3)c2-c2ccc(C#N)cc2)cc1
IC50 [1]: 21.1 nM

SMILES: N#Cc1ccc(-c2c(-c3ccc4[nH]ncc4c3)ncc3c2ccn3CC2CCNCC2)cc1
IC50 [1]: 94.3 nM

SMILES: COC(=O)Nc1ccc(-c2ncc3c(ccn3CC3CCNCC3)c2-c2ccc(C#N)cc2)cc1
IC50 [1]: 53.8 nM

SMILES: Cn1ncc2cc(-c3ncc4c(ccn4Cc4c[nH]cn4)c3-c3ccc(C#N)c(F)c3)ccc21
IC50 [1]: > 10000 nM

SMILES: Cn1ncc2cc(-c3ncc4[nH]ccc4c3-c3ccc(C#N)cc3)ccc21
IC50 [1]: 3710 nM

SMILES: Cn1ncc2cc(-c3ncc4c(ccn4CC4CCNCC4)c3-c3ccc(C#N)cc3F)ccc21
IC50 [1]: 17.5 nM

SMILES: Cn1ncc2cc(-c3ncc4c(ccn4CC4CCNCC4)c3-c3ccc(C(N)=O)cc3)ccc21
IC50 [1]: 6250 nM

SMILES: Cc1ccc(-c2ncc3c(ccn3CC3CCNCC3)c2-c2ccc(C#N)cc2)cn1
IC50 [1]: 69.8 nM

SMILES: Cc1cc(C#N)ccc1-c1c(-c2ccc3c(cnn3C)c2)ncc2c1ccn2CC1CCNCC1
IC50 [1]: 215 nM

SMILES: COC(C)(C)c1ccc(-c2ncc3c(ccn3CC3CCNCC3)c2-c2ccc(C#N)cc2)cc1
IC50 [1]: 16.5 nM

SMILES: CC(C)(C)c1ccc(-c2ncc3c(ccn3CC3CCNCC3)c2-c2ccc(C#N)cc2)cc1
IC50 [1]: 47.9 nM

SMILES: Cn1ncc2cc(-c3ncc4c(ccn4CC4CCNCC4)c3-c3ccc(C#N)cc3)ccc21
IC50 [1]: 12.9 nM
IC50 (MOLM-13): 62 nM
IC50 (MV4-11): 4.1 nM
IC50 (NCI-H1417): 11 nM

SMILES: CS(=O)(=O)c1ccc(-c2ncc3c(ccn3CC3CCNCC3)c2-c2ccc(C#N)cc2)cc1
IC50 [1]: 146 nM

SMILES: CNCCCn1ccc2c(-c3ccc(C#N)cc3)c(-c3ccc4c(cnn4C)c3)ncc21
IC50 [1]: 42.8 nM

SMILES: Cn1cnc2cc(-c3ncc4c(ccn4CC4CCNCC4)c3-c3ccc(C#N)cc3)ccc21
IC50 [1]: 15.4 nM

SMILES: CNC1CCC(Cn2ccc3c(-c4ccc(C#N)c(F)c4)c(-c4ccc5c(cnn5C)c4)ncc32)CC1 (stereo not drawn)
IC50 [1]: 229 nM

SMILES: N#Cc1ccc(-c2c(-c3ccc(N)cc3)ncc3c2ccn3CC2CCNCC2)cc1
IC50 [1]: 354 nM

SMILES: C/C(=N\NC(=O)c1cccc(S(=O)(=O)N2CCN(C)CC2)c1)c1cc(Cl)ccc1O [SECLIDEMSTAT]
IC50 [1]: 26.2 nM

SMILES: CCC1(Cn2ccc3c(-c4ccc(C#N)cc4)c(-c4ccc5c(cnn5C)c4)ncc32)CCNCC1
IC50 [1]: 121 nM

SMILES: Cc1ccc(-c2ncc3c(ccn3CC3CCNCC3)c2-c2ccc(C#N)cc2)cc1
IC50 [1]: 34.5 nM

SMILES: Cc1ccc(-c2ncc3c(ccn3CC3CCNCC3)c2-c2ccc(C#N)cc2)cc1C
IC50 [1]: 24.3 nM

SMILES: Cn1ncc2cc(-c3ncc4c(ccn4Cc4cccnc4)c3-c3ccc(C#N)c(F)c3)ccc21
IC50 [1]: > 10000 nM

SMILES: Cc1ccc(-c2ncc(OC[C@@H]3CCNC3)cc2-c2ccc(C#N)cc2)cc1
IC50 [1]: 130 nM
IC50 (MOLM-13): 613 nM
IC50 (MV4-11): 122 nM
IC50 (NCI-H1417): 213 nM

The next molecules have a lower IC50 [1] than those just listed; values first:

IC50 [1]: 4.3 nM
IC50 (MOLM-13): 58 nM
IC50 (MV4-11): 1.7 nM
IC50 (NCI-H1417): 2.7 nM
half-life [2]: < 10 min
half-life [3]: 42 min
half-life [4]: 37 min
half-life [5]: < 10 min
SMILES: CN1CCOc2cc(-c3ncc4c(ccn4CC4CCNCC4)c3-c3ccc(C#N)c(F)c3)ccc21

IC50 [1]: 4.6 nM
IC50 (MOLM-13): 170 nM
IC50 (MV4-11): 2.9 nM
IC50 (NCI-H1417): 9.3 nM
SMILES: CN1CCOc2cc(-c3ncc4c(ccn4CC4CCNCC4)c3-c3ccc(C#N)cc3)ccc21

IC50 [1]: 3.9 nM
IC50 (MOLM-13): 316 nM
IC50 (MV4-11): 2.7 nM
IC50 (NCI-H1417): 7.3 nM
half-life [2]: > 60 min
half-life [3]: > 60 min
half-life [4]: > 60 min
half-life [5]: > 60 min
SMILES: Cn1ncc2cc(-c3ncc4c(ccn4CC4CCNCC4)c3-c3ccc(C#N)c(F)c3)ccc21

IC50 [1]: 1.4 nM
IC50 (MOLM-13): 182 nM
IC50 (MV4-11): 0.7 nM
IC50 (NCI-H1417): 2.3 nM
half-life [2]: < 10 min
half-life [3]: 36 min
half-life [4]: 35 min
half-life [5]: < 10 min
SMILES: CN1CCOc2cc(-c3ncc4c(ccn4CC4(C)CCNCC4)c3-c3ccc(C#N)c(F)c3)ccc21

IC50 [1]: 6.5 nM
SMILES: Cn1ccc2cc(-c3ncc4c(ccn4CC4CCNCC4)c3-c3ccc(C#N)cc3)ccc21

IC50 [1]: 12.4 nM
SMILES: Cn1ncc2cc(-c3ncc4c(ccn4CCCCN)c3-c3ccc(C#N)cc3)ccc21

IC50 [1]: 3.1 nM
IC50 (MOLM-13): 31 nM
IC50 (MV4-11): 0.6 nM
IC50 (NCI-H1417): 1.1 nM
half-life [2]: > 60 min
half-life [3]: > 60 min
half-life [4]: > 60 min
half-life [5]: > 60 min
SMILES: Cn1ncc2cc(-c3ncc4c(ccn4CC4(C)CCNCC4)c3-c3ccc(C#N)c(F)c3)ccc21

IC50 [1]: 5.1 nM
SMILES: Cn1ccc2cc(-c3ncc4c(ccn4CC4CCNCC4)c3-c3ccc(C#N)cc3)cnc21

IC50 [1]: 9.4 nM
SMILES: CN(C)c1ccc(-c2ncc3c(ccn3CC3CCNCC3)c2-c2ccc(C#N)cc2)cc1

IC50 [1]: 3.7 nM
half-life [2]: > 60 min
half-life [3]: > 60 min
half-life [4]: > 60 min
half-life [5]: > 60 min
SMILES: Cn1ncc2cc(-c3ncc4c(ccn4C[C@@H]4CCNC4)c3-c3ccc(C#N)c(F)c3)ccc21

IC50 [1]: 1.3 nM
IC50 (MOLM-13): 130 nM
IC50 (MV4-11): 1.5 nM
IC50 (NCI-H1417): 3.7 nM
SMILES: CN1CCOc2cc(-c3ncc4c(ccn4CC4(C)CCNCC4)c3-c3ccc(C#N)cc3)ccc21

IC50 [1]: 4.3 nM
IC50 (MOLM-13): 126 nM
IC50 (MV4-11): 3.2 nM
IC50 (NCI-H1417): 5.7 nM
SMILES: Cn1ncc2cc(-c3ncc4c(ccn4CC4(C)CCNCC4)c3-c3ccc(C#N)cc3)ccc21

IC50 [1]: 3.5 nM
SMILES: Cn1ncc2cc(-c3ncc4c(ccn4C[C@@H]4CCCNC4)c3-c3ccc(C#N)c(F)c3)ccc21
